Test results reported in US20110104256A1, “METHODS FOR TREATING OR PREVENTING COLORECTAL CANCER” (priority 2008, published 2011).
Marks after values point to notes of the source that are not given here.

Test system: WiDr human colorectal adenocarcinoma cells
Test: Inhibition of colorectal tumor growth in WiDr xenograft model
Format: in vivo, nude mouse (nu/nu)
Details: for % Growth Inhibition: WiDr xenograft, nude mice
Excerpt: In these experiments, 5 million WiDr human colorectal adenocarcinoma cells, mixed 1:1 with Matrigel, were inoculated subcutaneously to the flank of each nude mouse (nu/nu).

[1] = Day 10 post inoculation, 0.5 mg anti-IGF1R IP 2x/week, 40 mpk Sunitinib PO QD (Table 6)
[2] = Day 14 post inoculation, 0.5 mg anti-IGF1R IP 2x/week, 40 mpk Sunitinib PO QD (Table 6)
[3] = Day 17 post inoculation, 0.5 mg anti-IGF1R IP 2x/week, 40 mpk Sunitinib PO QD (Table 6)
[4] = Day 21 post inoculation, 0.5 mg anti-IGF1R IP 2x/week, 40 mpk Sunitinib PO QD (Table 6)
[5] = Day 24 post inoculation, 0.5 mg anti-IGF1R IP 2x/week, 40 mpk Sunitinib PO QD (Table 6)
[6] = Day 28 post inoculation, 0.5 mg anti-IGF1R IP 2x/week, 40 mpk Sunitinib PO QD (Table 6)
[7] = Day 35 post inoculation, 0.5 mg anti-IGF1R IP 2x/week, 40 mpk Sunitinib PO QD (Table 6)
[8] = 0.5 mg anti-IGF1R IP 2x/week, 40 mpk Sunitinib PO QD (Table 5)

Compound | Mean tumor volume [1] [mm^3] | Mean tumor volume [2] [mm^3] | Mean tumor volume [3] [mm^3] | Mean tumor volume [4] [mm^3] | Mean tumor volume [5] [mm^3] | Mean tumor volume [6] [mm^3] | Mean tumor volume [7] [mm^3] | % Growth Inhibition [8] | Mean tumor volume (Day 10 post inoculation, 0.5 mg anti-IGF1R, 10 mpk Leucovorin/60 mpk 5-FU, IP 2x/week (Table 3)) [mm^3] | Mean tumor volume (Day 14 post inoculation, 0.5 mg anti-IGF1R, 10 mpk Leucovorin/60 mpk 5-FU, IP 2x/week (Table 3)) [mm^3] | Mean tumor volume (Day 17 post inoculation, 0.5 mg anti-IGF1R, 10 mpk Leucovorin/60 mpk 5-FU, IP 2x/week (Table 3)) [mm^3] | Mean tumor volume (Day 21 post inoculation, 0.5 mg anti-IGF1R, 10 mpk Leucovorin/60 mpk 5-FU, IP 2x/week (Table 3)) [mm^3] | Mean tumor volume (Day 24 post inoculation, 0.5 mg anti-IGF1R, 10 mpk Leucovorin/60 mpk 5-FU, IP 2x/week (Table 3)) [mm^3] | Mean tumor volume (Day 28 post inoculation, 0.5 mg anti-IGF1R, 10 mpk Leucovorin/60 mpk 5-FU, IP 2x/week (Table 3)) [mm^3] | Mean tumor volume (Day 31 post inoculation, 0.5 mg anti-IGF1R IP 2x/week, 40 mpk Sunitinib PO QD (Table 6)) [mm^3] | Mean tumor volume (Day 31 post inoculation, 0.5 mg anti-IGF1R, 10 mpk Leucovorin/60 mpk 5-FU, IP 2x/week (Table 3)) [mm^3] | Mean tumor volume (Day 35 post inoculation, 0.5 mg anti-IGF1R, 10 mpk Leucovorin/60 mpk 5-FU, IP 2x/week (Table 3)) [mm^3] | % Growth Inhibition (0.5 mg anti-IGF1R IP 2x/week, 60 mpk 5-FU/10 mpk Leucovorin IP 2x/week (Table 2)) [%]
CCN(CC)CCNC(=O)c1c(C)[nH]c(/C=C2\C(=O)Nc3ccc(F)cc32)c1C [Sunitinib, sunitinib, reference compound] | 95.8 | 125.4 | 143.1 | 175.6 | 194.8 | 205.9 | 238.6 | 79^a % |  |  |  |  |  |  |  |  |  | 
anti-IGF1R: anti-IGF1R antibody with 15H12/19D12 immunoglobulin light chain-F (LCF, κ) and heavy chain-A (HCA, γ1) | 93.1 | 148.0 | 192.0 | 254.1 | 317.0 | 403.1 | 577.6 | 30% | 93.1 | 148.0 | 192.0 | 254.1 | 317.0 | 403.1 | 474.5 | 474.5 | 577.6 | 30
